Laboratory results from US20090035440A1, “Compositions comprising polyphenol” (Conopco, Inc. d/b/a Unilever, priority 2007, published 2009).

Key:
[1] = Dynamic light scattering particle size of EGCG/complexing agent mixed systems (Example 1); type: physicochemical; settings: 0.6 wt % EGCG and 0.6 wt % CA; DLS at 25° C., undiluted; volume-averaged; one value per peak where more than one peak
Experimental: (§1) Stock solutions containing 1.2 wt % EGCG were prepared by adding the powder to de-ionized water (conductivity=18.2 MΩ.cm) and stirring at 40° C. […] Stock solutions of pectin, were prepared by dissolving powder in de-ionized water at 80° C. for 1 hour and then cooling to 25° C. After dissolving the material, the pH of all samples, except for the WPI, was adjusted to 5.0 using 0.01 HCl or 0.1 M NaOH. The WPI was used at a pH of 6.5 to avoid precipitation of the whey proteins. In all cases the maximum ionic strength would remain below 10 mM. After setting the pH, mixed systems were prepared by quickly adding a fixed weight of the stock EGCG-solution into the same weight of complexing agent (CA)-solution under continuous stirring. Thus the final samples contained 0.6 wt % EGCG and 0.6 wt % CA.
DLS measurements were performed within 4 hours after sample preparation using a Zetasizer Nano ZS instrument (Malvern Instruments, Malvern, UK). This instrument records intensity fluctuations of scattered light at a fixed angle from clear samples containing particles between 1 and 1000 nm in size. These fluctuations are converted into an autocorrelation function spanning time scales between picoseconds and seconds. The instrument software fits intensity- and volume-weighed size distributions to the recorded autocorrelations. Samples were measured without any dilution at 25° C. […]

[2] = 1H-NMR estimate of non-complexed (free) EGCG in mixed systems with complexing agent; type: binding; settings: 0.6 wt % EGCG and 0.6 wt % CA in de-ionized water; pH 5.0 (WPI pH 6.5); 1H-NMR at 27° C.
Experimental: as §1
Proton-NMR measurements were carried out on 0.6 ml samples in 5 mm NMR tubes at 27° C. using a Bruker AV600 NMR spectrometer. Prior to measurement, 5% (w/w) of D2O was added to each sample. The spectra were acquired with presaturation of the water signal using the Bruker pulse program: noesygppr1d. A signal at ˜4.7 ppm was from residual water and was ignored for data analysis purposes. […] This calibration curve was used to estimate the amount of non-complexed (or “free”) EGCG in the samples.

[3] = Appearance of EGCG/complexing agent mixed systems (Example 1); type: physicochemical; settings: 0.6 wt % EGCG and 0.6 wt % CA
Experimental: as §1

Average Particle Size (nm) [1] | Appearance [3] | Compound | Amount of EGCG free in solution (wt % of total EGCG) [2]
2 nm | Transparent | O=C(O)[C@@H]1CCCN1 [L-proline] | 100 wt % of total EGCG
– | – | poly-L-proline | 0 wt % of total EGCG
